Measurements published in patent US8309734B2 (Hoffmann-La Roche Inc., priority 2008, dated 2012).

biological target: T1, human GPBAR1 receptor (Homo sapiens, UniProt Q8TDU6); assay: functional cAMP assay in CHO-dhfr(minus) cells expressing human GPBAR1 receptors; type: cell-based; conditions: cAMP increase (TR-FRET) in CHO-dhfr(minus) cells expressing human GPBAR1; compounds incubated 30 min at 30° C.
T1 construct: expressed in transfected cells
T1 sequence (Q8TDU6 1-330): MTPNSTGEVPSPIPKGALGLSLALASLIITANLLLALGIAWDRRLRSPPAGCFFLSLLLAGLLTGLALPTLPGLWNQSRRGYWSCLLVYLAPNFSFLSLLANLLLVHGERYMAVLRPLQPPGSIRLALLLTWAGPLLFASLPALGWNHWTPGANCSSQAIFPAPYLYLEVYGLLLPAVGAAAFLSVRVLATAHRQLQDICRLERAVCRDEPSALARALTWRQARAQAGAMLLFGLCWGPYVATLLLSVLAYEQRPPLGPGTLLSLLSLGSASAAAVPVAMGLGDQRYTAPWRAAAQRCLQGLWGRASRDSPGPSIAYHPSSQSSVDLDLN
Description: The final clone was verified by DNA sequence analysis. The plasmid was transfected into CHO cells deficient in dihydrofolate reductase activity (CHO-dhfr-) using Lipofectamine plus (Invitrogen). Clones were isolated in limited dilution conditions and identified by activities in the cAMP assay using lithocholic acid as agonist.
The growth medium was exchanged with Krebs Ringer Bicarbonate buffer with 1 mM IBMX and incubated at 30° C. for 30 mM. Compounds were added to a final assay volume of 100 μl and incubated for 30 min at 30° C. […] The time-resolved energy transfer is measured by a TRF reader (Evotec Technologies GmbH, Hamburg Germany), equipped with a ND:YAG laser as excitation source. The plate is measured twice with the excitation at 355 nm and at the emission with a delay of 100 ns and a gate of 100 ns, total exposure time 10s at 730 (bandwith 30 nm) or 645 nm (bandwith 75 nm), respectively.
EC50 values were determined using Activity Base analysis (ID Business Solution, Limited). […] Specificity for GPBAR1 was tested in non-transfected CHO cells in the same assay as above.

In order of rising EC50:
1. O=C(c1ccncc1Oc1cc(Cl)ccc1Cl)N1CCCc2ccccc21 [Example 89, [3-(2,5-Dichloro-phenoxy)-pyridin-4-yl]-(3,4-dihydro-2H-quinolin-1-yl)-methanone]  7 nM
2. O=C(c1ccncc1Oc1cc(Cl)ccc1Cl)N1CCCc2cc(F)cc(F)c21 [Example 92, [3-(2,5-Dichloro-phenoxy)-pyridin-4-yl]-(6,8-difluoro-3,4-dihydro-2H-quinolin-1-yl)-methanone]  7 nM
3. O=C(c1cc(F)cnc1Oc1cc(Cl)ccc1Cl)N1CCCc2ccccc21 [Example 83, [2-(2,5-Dichloro-phenoxy)-5-fluoro-pyridin-3-yl]-(3,4-dihydro-2H-quinolin-1-yl)-methanone]  13 nM
4. O=C(c1ccncc1Oc1cc(Cl)ccc1Cl)N1CCCc2cc(F)ccc21 [Example 91, [3-(2,5-Dichloro-phenoxy)-pyridin-4-yl]-(6-fluoro-3,4-dihydro-2H-quinolin-1-yl)-methanone]  15 nM
5. O=C(c1ccncc1Oc1cc(Cl)ccc1Cl)N1CCCc2ccc(F)cc21 [Example 90, [3-(2,5-Dichloro-phenoxy)-pyridin-4-yl]-(7-fluoro-3,4-dihydro-2H-quinolin-1-yl)-methanone]  19 nM
6. COc1ccccc1N(C)C(=O)c1ccncc1Oc1cc(Cl)ccc1Cl [Example 95, 3-(2,5-Dichloro-phenoxy)-N-(2-methoxy-phenyl)-N-methyl-isonicotinamide]  28 nM
7. O=C(c1ccccc1Oc1cc(Cl)ccc1Cl)N1CCCc2ccccc21 [Example 110, [2-(2,5-Dichloro-phenoxy)-phenyl]-(3,4-dihydro-2H-quinolin-1-yl)-methanone]  29 nM
8. Cc1ccccc1N(C)C(=O)c1ccncc1Oc1cc(Cl)ccc1Cl [Example 93, 3-(2,5-Dichloro-phenoxy)-N-methyl-N-o-tolyl-isonicotinamide]  57 nM
9. O=C(c1cc(F)cnc1Oc1ccc(F)c(Cl)c1)N1CCCc2cc(F)c(F)cc21 [Example 87, [2-(3-Chloro-4-fluoro-phenoxy)-5-fluoro-pyridin-3-yl]-(6,7-difluoro-3,4-dihydro-2H-quinolin-1-yl)-methanone]  75 nM
10. O=C(c1cc(F)cnc1Oc1cc(Cl)ccc1Cl)N1CCOc2ccccc21 [Example 81, [2-(2,5-Dichloro-phenoxy)-5-fluoro-pyridin-3-yl]-(2,3-dihydro-benzo[1,4]oxazin-4-yl)-methanone]  78 nM
11. O=C(c1cc(F)cnc1Oc1ccc(F)c(Cl)c1)N1CCCc2ccccc21 [Example 86, [2-(3-Chloro-4-fluoro-phenoxy)-5-fluoro-pyridin-3-yl]-(3,4-dihydro-2H-quinolin-1-yl)-methanone]  96 nM
12. O=C(c1ccccc1Oc1cc(Cl)ccc1Cl)N1CCCc2cc(F)c(F)cc21 [Example 111, [2-(2,5-Dichloro-phenoxy)-phenyl]-(6,7-difluoro-3,4-dihydro-2H-quinolin-1-yl)-methanone]  102 nM
13. COc1ccccc1N(C)C(=O)c1ccncc1Oc1ccc(F)c(Cl)c1 [Example 108, 3-(3-Chloro-4-fluoro-phenoxy)-N-(2-methoxy-phenyl)-N-methyl-isonicotinamide]  122 nM
14. O=C(c1cccnc1Oc1ccc(F)c(Cl)c1)N1CCCc2cc(F)c(F)cc21 [Example 79, [2-(3-Chloro-4-fluoro-phenoxy)-pyridin-3-yl]-(6,7-difluoro-3,4-dihydro-2H-quinolin-1-yl)-methanone]  127 nM
15. O=C(c1ccncc1Oc1ccc(F)c(Cl)c1)N1CCCc2cc(F)cc(F)c21 [Example 105, [3-(3-Chloro-4-fluoro-phenoxy)-pyridin-4-yl]-(6,8-difluoro-3,4-dihydro-2H-quinolin-1-yl)-methanone]  138 nM
16. O=C(c1cc(F)ccc1Oc1cc(Cl)ccc1Cl)N1CCCc2ccccc21 [Example 113, [2-(2,5-Dichloro-phenoxy)-5-fluoro-phenyl]-(3,4-dihydro-2H-quinolin-1-yl)-methanone]  149 nM
17. COc1ccccc1N(C)C(=O)c1ccncc1Oc1ccc(Cl)cc1Cl [Example 101, 3-(2,4-Dichloro-phenoxy)-N-(2-methoxy-phenyl)-N-methyl-isonicotinamide]  150 nM
18. CN(C(=O)c1ccncc1Oc1cc(Cl)ccc1Cl)c1ccccc1Cl [Example 94, N-(2-Chloro-phenyl)-3-(2,5-dichloro-phenoxy)-N-methyl-isonicotinamide]  157 nM
19. O=C(c1ccncc1Oc1ccc(F)c(Cl)c1)N1CCCc2cc(F)ccc21 [Example 104, [3-(3-Chloro-4-fluoro-phenoxy)-pyridin-4-yl]-(6-fluoro-3,4-dihydro-2H-quinolin-1-yl)-methanone]  173 nM
20. O=C(c1ccncc1Oc1ccc(Cl)cc1Cl)N1CCCc2cc(F)cc(F)c21 [Example 98, [3-(2,4-Dichloro-phenoxy)-pyridin-4-yl]-(6,8-difluoro-3,4-dihydro-2H-quinolin-1-yl)-methanone]  217 nM
21. O=C(c1cc(F)cnc1Oc1cccc(Cl)c1)N1CCCc2cc(F)c(F)cc21 [Example 85, [2-(3-Chloro-phenoxy)-5-fluoro-pyridin-3-yl]-(6,7-difluoro-3,4-dihydro-2H-quinolin-1-yl)-methanone]  231 nM
22. O=C(c1ccncc1Oc1ccc(F)c(Cl)c1)N1CCCc2ccc(F)cc21 [Example 103, [3-(3-Chloro-4-fluoro-phenoxy)-pyridin-4-yl]-(7-fluoro-3,4-dihydro-2H-quinolin-1-yl)-methanone]  299 nM
23. O=C(c1ccncc1Oc1ccc(Cl)cc1Cl)N1CCCc2ccc(F)cc21 [Example 96, [3-(2,4-Dichloro-phenoxy)-pyridin-4-yl]-(7-fluoro-3,4-dihydro-2H-quinolin-1-yl)-methanone]  328 nM
24. Cc1ccccc1N(C)C(=O)c1ccncc1Oc1ccc(Cl)cc1Cl [Example 99, 3-(2,4-Dichloro-phenoxy)-N-methyl-N-o-tolyl-isonicotinamide]  388 nM
25. Cc1ccccc1N(C)C(=O)c1ccncc1Oc1ccc(F)c(Cl)c1 [Example 106, 3-(3-Chloro-4-fluoro-phenoxy)-N-methyl-N-o-tolyl-isonicotinamide]  425 nM
26. COc1ncccc1N(C)C(=O)c1ccncc1Oc1ccc(F)c(Cl)c1 [Example 109, 3-(3-Chloro-4-fluoro-phenoxy)-N-(2-methoxy-pyridin-3-yl)-N-methyl-isonicotinamide]  562 nM
27. CC1CCc2ccccc2N1C(=O)c1cc(F)cnc1Oc1cc(Cl)ccc1Cl (stereo not shown) [Example 80, [2-(2,5-Dichloro-phenoxy)-5-fluoro-pyridin-3-yl]-(2-methyl-3,4-dihydro-2H-quinolin-1-yl)-methanone]  630 nM
28. CN(C(=O)c1ccncc1Oc1ccc(F)c(Cl)c1)c1ccccc1Cl [Example 107, 3-(3-Chloro-4-fluoro-phenoxy)-N-(2-chloro-phenyl)-N-methyl-isonicotinamide]  662 nM
29. CCN(C(=O)c1cc(F)cnc1Oc1cc(Cl)ccc1Cl)c1ccccc1 [Example 84, 2-(2,5-Dichloro-phenoxy)-N-ethyl-5-fluoro-N-phenyl-nicotinamide]  686 nM
30. COc1ncccc1N(C)C(=O)c1ccncc1Oc1ccc(Cl)cc1Cl [Example 102, 3-(2,4-Dichloro-phenoxy)-N-(2-methoxy-pyridin-3-yl)-N-methyl-isonicotinamide]  703 nM
31. Cc1cccc2c1N(C(=O)c1cc(F)ccc1Oc1cc(Cl)ccc1Cl)CCC2 [Example 115, [2-(2,5-Dichloro-phenoxy)-5-fluoro-phenyl]-(8-methyl-3,4-dihydro-2H-quinolin-1-yl)-methanone]  920 nM
32. CC1CCc2ccccc2N1C(=O)c1cc(F)ccc1Oc1cc(Cl)ccc1Cl (stereo not shown) [Example 114, [2-(2,5-Dichloro-phenoxy)-5-fluoro-phenyl]-(2-methyl-3,4-dihydro-2H-quinolin-1-yl)-methanone]  946 nM
33. Cc1cccc2c1N(C(=O)c1cc(F)cnc1Oc1ccc(F)c(Cl)c1)CCC2 [Example 88, [2-(3-Chloro-4-fluoro-phenoxy)-5-fluoro-pyridin-3-yl]-(8-methyl-3,4-dihydro-2H-quinolin-1-yl)-methanone]  950 nM
34. CN(C(=O)c1ccncc1Oc1ccc(Cl)cc1Cl)c1ccccc1Cl [Example 100, N-(2-Chloro-phenyl)-3-(2,4-dichloro-phenoxy)-N-methyl-isonicotinamide]  1050 nM
35. Cc1ccc2c(c1)CCCN2C(=O)c1cc(F)ccc1Oc1cc(Cl)ccc1Cl [Example 116, [2-(2,5-Dichloro-phenoxy)-5-fluoro-phenyl]-(6-methyl-3,4-dihydro-2H-quinolin-1-yl)-methanone]  1160 nM
36. O=C1CCCN(C(=O)c2cc(F)cnc2Oc2cc(Cl)ccc2Cl)c2ccccc21 [Example 82, 1-[2-(2,5-Dichloro-phenoxy)-5-fluoro-pyridine-3-carbonyl]-1,2,3,4-tetrahydro-benzo[b]azepin-5-one]  1270 nM
37. CC1Cc2ccccc2N1C(=O)c1ccccc1Oc1cc(Cl)ccc1Cl (stereo not shown) [Example 112, [2-(2,5-Dichloro-phenoxy)-phenyl]-(2-methyl-2,3-dihydro-indol-1-yl)-methanone]  1710 nM
